Reference: patent US4147861A, “1N-(α-Hydroxy-ω-aminoalkanoyl)- 6'N-methyl-3',4'-dideoxykanamycin B and the production thereof” (Zaidan Hojin Biseibutsu Kagaku Kenkyu Kai, priority 1977, dated 1979)
Values after ≈ are worked out from the molar mass of the structure shown. Where two headings read alike, the source gives them in different places.

Columns and labels:
[1] = test system: Shigella dysenteriae JS 11910; experiment: Minimum inhibitory concentration, serial dilution method on nutrient agar; assay type: cell-based; conditions: JS11910, 18 h, read-out: Minimum Inhibitory Concentrations
[2] = test system: Bacillus cereus ATCC 10702; experiment: as above; assay type: cell-based; conditions: read-out: Minimum Inhibitory Concentrations
[3] = test system: Pseudomonas aeruginosa No. 12; experiment: as above; assay type: cell-based; conditions: read-out: Minimum Inhibitory Concentrations
[4] = test system: Escherichia coli K-12; experiment: as above; assay type: cell-based; conditions: K12; Escherichia coli K-12; 37° C., 18 hours; read-out: Minimum Inhibitory Concentrations
[5] = test system: Escherichia coli NIHJ; experiment: as above; assay type: cell-based; conditions: read-out: Minimum Inhibitory Concentrations
[6] = test system: Escherichia coli K-12 ML 1629; experiment: as above; assay type: cell-based; conditions: read-out: Minimum Inhibitory Concentrations
[7] = test system: Pseudomonas aeruginosa TI-13; experiment: as above; assay type: cell-based; conditions: Pseudomonas aeruginosa, TI13, 18 h, read-out: Minimum Inhibitory Concentrations
[8] = test system: Escherichia coli K-12 R5; experiment: as above; assay type: cell-based; conditions: K12R5, 18 h, read-out: Minimum Inhibitory Concentrations
[9] = test system: Escherichia coli LA290 R55; experiment: as above; assay type: cell-based; conditions: LA290R55, 18 h, read-out: Minimum Inhibitory Concentrations
[10] = test system: Corynebacterium bovis 1810; experiment: as above; assay type: cell-based; conditions: Corynebacterium bovis 1810; 37° C., 18 hours; read-out: Minimum Inhibitory Concentrations
[11] = test system: Pseudomonas aeruginosa GN315; experiment: as above; assay type: cell-based; conditions: Pseudomonas aeruginosa GN315; 37° C., 18 hours; read-out: Minimum Inhibitory Concentrations
[12] = test system: Pseudomonas aeruginosa 99; experiment: as above; assay type: cell-based; conditions: 37° C., 18 hours, read-out: Minimum Inhibitory Concentrations
[13] = test system: Proteus vulgaris OX 19; experiment: as above; assay type: cell-based; conditions: OX19; Proteus vulgaris OX 19; 37° C., 18 hours; read-out: Minimum Inhibitory Concentrations
[14] = test system: Salmonella enteritidis 1891; experiment: as above; assay type: cell-based; conditions: Salmonella enterica; Salmonella enteritidis 1891; 37° C., 18 hours; read-out: Minimum Inhibitory Concentrations
[15] = test system: Escherichia coli LA290 R56; experiment: as above; assay type: cell-based; conditions: LA290R56, 18 h, read-out: Minimum Inhibitory Concentrations
[16] = test system: Bacillus subtilis PCI 219; experiment: as above; assay type: cell-based; conditions: PCI219, 37° C., 18 hours, read-out: Minimum Inhibitory Concentrations
[17] = test system: Staphylococcus aureus FDA 209P; experiment: as above; assay type: cell-based; conditions: FDA209P, 37° C., 18 hours, read-out: Minimum Inhibitory Concentrations
[18] = test system: Staphylococcus aureus Terajima; experiment: as above; assay type: cell-based; conditions: 37° C., 18 hours, read-out: Minimum Inhibitory Concentrations
[19] = test system: Shigella flexneri 4b JS 11811; experiment: as above; assay type: cell-based; conditions: 4BJS11811, 37° C., 18 hours, read-out: Minimum Inhibitory Concentrations
Method: (§1) The minimum inhibitory concentrations (mcg./ml.) of 1N-(DL-isoseryl)-6'N-methyl-3',4'-dideoxykanamycin B (abbreviated as DL-IS-MDKB); 1N-(L-isoseryl)-6'N-methyl-3',4'-dideoxykanamycin B (abbreviated as L-IS-MDKB); 1N-(L-4-amino-[…])-6'N-methyl-3',4'-dideoxykanamycin B (abbreviated as AHB-MDKB); and 1N-(L-5-amino-2-hydroxyvaleryl)-6'N-methyl-3',4'-dideoxykanamycin B (abbreviated as AHV-MDBK) against various organisms were determined according to serial dilution method using nutrient agar medium at 37° C., the readings being made after 18 hours incubation. For the comparison purpose, the minimum inhibitory concentrations (mcg./ml.) of 1 N-(L-4-amino-2-hydroxybutyryl)-kanamycin A (abbreviated as AHB-KMA) and 1N-([…])-kanamycin B (abbreviated as AHB-KMB) which are known from U.S. Pat. No. 3,781,268 were also determined by the same manner as stated above.

[20] = test system: Escherichia coli K-12 ML 1630; experiment: as above; assay type: cell-based; conditions: K12ML1630, 37° C., 18 hours, read-out: Minimum Inhibitory Concentrations
Method: as §1

[21] = test system: Shigella sonnei JS 11746; experiment: as above; assay type: cell-based; conditions: JS11746, 37° C., 18 hours, read-out: Minimum Inhibitory Concentrations
Method: as §1

[22] = test system: Klebsiella pneumoniae 22 No. 3038; experiment: as above; assay type: cell-based; conditions: 37° C., 18 hours, read-out: Minimum Inhibitory Concentrations
Method: as §1

[23] = test system: Pseudomonas aeruginosa A3; experiment: as above; assay type: cell-based; conditions: 37° C., 18 hours, read-out: Minimum Inhibitory Concentrations
Method: as §1

[24] = test system: Escherichia coli W677; experiment: as above; assay type: cell-based; conditions: Escherichia coli W677; 37° C., 18 hours; read-out: Minimum Inhibitory Concentrations
[25] = test system: kanamycin-resistant bacteria; conditions: prior art statement; cited from earlier work
[26] = test system: Escherichia coli K-12 ML 1410 R81; experiment: Minimum inhibitory concentration, serial dilution method on nutrient agar; assay type: cell-based; conditions: 18 h, read-out: Minimum Inhibitory Concentrations
[27] = test system: Escherichia coli LA290 R64; experiment: as above; assay type: cell-based; conditions: LA290R64, 18 h, read-out: Minimum Inhibitory Concentrations
[28] = test system: Staphylococcus aureus; experiment: as above; assay type: cell-based; conditions: 37° C., 18 hours, read-out: Minimum Inhibitory Concentrations
[29] = test system: Bacillus subtilis NRRL B-558; experiment: as above; assay type: cell-based; conditions: NRRLB558, 37° C., 18 hours, read-out: Minimum Inhibitory Concentrations
[30] = test system: Bacillus anthracis; experiment: microbe, parasite or virus in culture; assay type: cell-based; conditions: 18 h, read-out: Minimum Inhibitory Concentrations
[31] = test system: Sarcina lutea PCI 1001; experiment: Minimum inhibitory concentration, serial dilution method on nutrient agar; assay type: cell-based; conditions: Micrococcus luteus, PCI1001, 18 h, read-out: Minimum Inhibitory Concentrations
[32] = test system: Klebsiella pneumoniae PCT 602; experiment: as above; assay type: cell-based; conditions: PCT602; Klebsiella pneumoniae PCT 602; 37° C., 18 hours; read-out: Minimum Inhibitory Concentrations
[33] = test system: Escherichia coli JR66/W677; experiment: as above; assay type: cell-based; conditions: Escherichia coli, JR66/W677, 18 h, read-out: Minimum Inhibitory Concentrations
[34] = test system: Mycobacterium smegmatis ATCC 607; experiment: as above; assay type: cell-based; conditions: Mycolicibacterium smegmatis, ATCC607, 37° C., 18 hours, read-out: Minimum Inhibitory Concentrations
[35] = test system: Salmonella typhosa T-63; experiment: as above; assay type: cell-based; conditions: Salmonella enterica, 18 h, read-out: Minimum Inhibitory Concentrations
[36] = test system: Escherichia coli K-12 ML 1410; experiment: as above; assay type: cell-based; conditions: read-out: Minimum Inhibitory Concentrations

Question: Which MIC [1] does the source give for `NCC[C@H](O)C(=O)N[C@@H]1C[C@H](N)[C@@H](O[C@H]2O[C@H](CN)[C@@H](O)[C@H](O)[C@H]2O)[C@H](O)[C@H]1O[C@H]1O[C@H](CO)[C@@H](O)[C@H](N)[C@H]1O` [AHB-KMA, 1 N-(L-4-amino-2-hydroxybutyryl)-kanamycin A, reference compound] here?
Answer: 3.13 µg/mL (≈ 5.34 µM)

Question: And the MIC ([2]; ATCC10702, Bacillus cereus ATCC 10702, 37° C., 18 hours)?
Answer: 0.78 µg/mL (≈ 1.33 µM)

Question: And the MIC ([3]; Pseudomonas aeruginosa, NO.12, 18 h)?
Answer: 3.13 µg/mL (≈ 5.34 µM)

Question: What about the MIC [4] of the same compound?
Answer: 0.78 µg/mL (≈ 1.33 µM)

Question: And the MIC ([5]; Escherichia coli NIHJ, 37° C., 18 hours)?
Answer: 0.78 µg/mL (≈ 1.33 µM)

Question: And the MIC ([6]; K12ML1629, Escherichia coli K-12 ML 1629, 37° C., 18 hours)?
Answer: 0.78 µg/mL (≈ 1.33 µM)

Question: And the MIC [7]?
Answer: 3.13 µg/mL (≈ 5.34 µM)

Question: And the MIC [8]?
Answer: 0.39 µg/mL (≈ 0.666 µM)

Question: What about the MIC [9] of the same compound?
Answer: 0.78 µg/mL (≈ 1.33 µM)

Question: And the MIC [10]?
Answer: 0.78 µg/mL (≈ 1.33 µM)

Question: What about the MIC [11] of the same compound?
Answer: 100 µg/mL (≈ 171 µM)

Question: And the MIC [12]?
Answer: 6.25 µg/mL (≈ 10.7 µM)

Question: What about the MIC [13] of the same compound?
Answer: 0.78 µg/mL (≈ 1.33 µM)

Question: And the MIC [14]?
Answer: 0.78 µg/mL (≈ 1.33 µM)

Question: What about the MIC [15] of the same compound?
Answer: 0.39 µg/mL (≈ 0.666 µM)

Question: And the MIC [16]?
Answer: < 0.2 µg/mL

Question: And the MIC [17]?
Answer: 0.39 µg/mL (≈ 0.666 µM)

Question: And the MIC [18]?
Answer: < 0.2 µg/mL

Question: And the MIC [19]?
Answer: 3.13 µg/mL (≈ 5.34 µM)

Question: What about the MIC [20] of the same compound?
Answer: 0.78 µg/mL (≈ 1.33 µM)

Question: What about the MIC [21] of the same compound?
Answer: 1.56 µg/mL (≈ 2.66 µM)

Question: What about the MIC [22] of the same compound?
Answer: 1.56 µg/mL (≈ 2.66 µM)

Question: What about the MIC [23] of the same compound?
Answer: 3.13 µg/mL (≈ 5.34 µM)

Question: And the MIC [24]?
Answer: < 0.2 µg/mL

Question: And the “activity against kanamycin-resistant bacteria” value [25]?
Answer: active against a large number of kanamycin-resistant bacteria

Question: What about the MIC [26] of the same compound?
Answer: 1.56 µg/mL (≈ 2.66 µM)

Question: What about the MIC [27] of the same compound?
Answer: 0.39 µg/mL (≈ 0.666 µM)

Question: And the MIC [28]?
Answer: < 0.2 µg/mL

Question: And the MIC [29]?
Answer: < 0.2 µg/mL

Question: And the MIC [30]?
Answer: < 0.2 µg/mL

Question: What about the MIC [31] of the same compound?
Answer: 3.13 µg/mL (≈ 5.34 µM)

Question: What about the MIC [32] of the same compound?
Answer: 0.39 µg/mL (≈ 0.666 µM)

Question: What about the MIC [33] of the same compound?
Answer: 1.56 µg/mL (≈ 2.66 µM)

Question: And the MIC [34]?
Answer: < 0.2 µg/mL

Question: And the MIC [35]?
Answer: 0.39 µg/mL (≈ 0.666 µM)

Question: What about the MIC ([36]; K12ML1410, Escherichia coli K-12 ML 1410, 37° C., 18 hours) of the same compound?
Answer: 0.78 µg/mL (≈ 1.33 µM)

Question: What does the source list for `CNC[C@@H]1CC[C@@H](N)[C@@H](O[C@H]2[C@H](O)[C@@H](O[C@H]3O[C@H](CO)[C@@H](O)[C@H](N)[C@H]3O)[C@H](NC(=O)[C@@H](O)CN)C[C@@H]2N)O1` [L-IS-MDKB, 1N-(L-isoseryl)-6'N-methyl-3',4'-dideoxykanamycin B]?
Answer: MIC [1]: 3.13 µg/mL (≈ 5.66 µM); MIC ([2]; Bacillus cereus, ATCC10702, 18 h): 1.56 µg/mL (≈ 2.82 µM); MIC ([3]; Pseudomonas aeruginosa No. 12, 37° C., 18 hours): 25 µg/mL (≈ 45.2 µM); MIC [4]: 0.78 µg/mL (≈ 1.41 µM); MIC ([5]; Escherichia coli, 18 h): 1.56 µg/mL (≈ 2.82 µM); MIC ([6]; Escherichia coli, K12ML1629, 18 h): 1.56 µg/mL (≈ 2.82 µM); MIC [7]: 6.25 µg/mL (≈ 11.3 µM); MIC [8]: 1.56 µg/mL (≈ 2.82 µM); MIC [9]: 1.56 µg/mL (≈ 2.82 µM); MIC [10]: 0.78 µg/mL (≈ 1.41 µM); MIC [11]: 25 µg/mL (≈ 45.2 µM); MIC [12]: 25 µg/mL (≈ 45.2 µM); MIC [13]: 0.78 µg/mL (≈ 1.41 µM); MIC [14]: 0.78 µg/mL (≈ 1.41 µM); MIC [15]: 0.78 µg/mL (≈ 1.41 µM); MIC [16]: < 0.2 µg/mL; MIC [17]: < 0.2 µg/mL; MIC [18]: < 0.2 µg/mL; MIC [19]: 1.56 µg/mL (≈ 2.82 µM); MIC [20]: 1.56 µg/mL (≈ 2.82 µM); MIC [21]: 3.13 µg/mL (≈ 5.66 µM); MIC [22]: 1.56 µg/mL (≈ 2.82 µM); MIC [23]: 3.13 µg/mL (≈ 5.66 µM); MIC [24]: 0.78 µg/mL (≈ 1.41 µM); MIC [26]: 1.56 µg/mL (≈ 2.82 µM); MIC [27]: 0.39 µg/mL (≈ 0.706 µM); MIC [28]: < 0.2 µg/mL; MIC [29]: < 0.2 µg/mL; MIC [30]: < 0.2 µg/mL; MIC [31]: 3.13 µg/mL (≈ 5.66 µM); MIC [32]: 0.78 µg/mL (≈ 1.41 µM); MIC [33]: 1.56 µg/mL (≈ 2.82 µM); MIC [34]: 0.39 µg/mL (≈ 0.706 µM); MIC [35]: 0.39 µg/mL (≈ 0.706 µM); MIC ([36]; Escherichia coli, K12ML1410, 18 h): 1.56 µg/mL (≈ 2.82 µM)
